# According to patent US20260027068A1, “METHODS OF ADM[…]-KETAMINE” (Perception Neuroscience, Inc., priority 2022, published 2026):
# Experiment: Temperature (vital signs)
# Settings: 30 mg
# Description: The Investigational Medicinal Product (IMP) R(−)-ketamine hydrochloride in sterile water for intravenous injection was investigated as an […] treatment of TRD. The International Union of Pure and Applied Chemistry (IUPAC) name is of the IMP is (2R)-2-(2-chlorophenyl)-2-(methylamino)cyclohexan-1-one. Subjects received the solution at either 30 mg or 60 mg dose, or a placebo. The IMP or placebo was administered on Day 1 as a single IV infusion via an electronic infusion pump over 40 minutes. The duration of study participation for each subject was up to 29 days including a screening period, a 3-day in-clinic visit, and 2 follow-up visits. 101 subjects were enrolled in approximately 20 study centers in the EU and the US.
# Tympanic or temporal temperature, heart rate, blood pressure (SBP/DBP), respiratory rate, and SpO2 were assessed. Blood pressure and pulse measurements will be assessed with a completely automated device while the subject is supine or semi-supine. Manual techniques will be used only if an automated device is not available. Blood pressure and pulse measurements should be preceded by at least 5 minutes of rest for the subject in a quiet setting without distractions (e.g., television, cell phones). An abnormal blood pressure value at screening may be repeated once after 5 minutes of relaxation to determine the subject's eligibility. Blood pressure was recorded using the same arm and position (supine or semi-supine) throughout the study, where possible. Vital signs (to be taken before blood collection for laboratory tests) consisted of 1 pulse and 3 blood pressure measurements (3 consecutive blood pressure readings will be recorded at intervals of at least 1 minute). The average of the 3 blood pressure readings was recorded in the CRF. A pulse oximeter was used to measure peripheral capillary oxygen saturation (SpO2) continuously from pre-dose until 4-hours post-dose. A pulse oximeter was clipped onto the finger or foot of the subject, and light will be sent through the finger or foot and measured on the other side.
# In these tables, baseline value is defined as the last non-missing value prior to study drug administration.
smiles,measurement,setting,value
"CN[C@@]1(c2ccccc2Cl)CCCCC1=O.Cl [R(−)-ketamine, (2R)-2-(2-chlorophenyl)-2-(methylamino)cyclohexan-1-one]","Temperature, Max","Day 1, 15 minutes",37.2 °C
same,"Temperature, Mean","Day 1, 15 minutes",36.57 °C
same,"Temperature, Median","Day 1, 15 minutes",36.50 °C
same,"Temperature, Min","Day 1, 15 minutes",36.4 °C
same,"Temperature, Max","Day 1, 40 minutes",37.2 °C
same,"Temperature, Mean","Day 1, 40 minutes",36.58 °C
same,"Temperature, Median","Day 1, 40 minutes",36.60 °C
same,"Temperature, Min","Day 1, 40 minutes",36.2 °C
same,"Temperature, Max","Day 1, 60 minutes",37.2 °C
same,"Temperature, Mean","Day 1, 60 minutes",36.57 °C
same,"Temperature, Median","Day 1, 60 minutes",36.50 °C
same,"Temperature, Min","Day 1, 60 minutes",36.3 °C
same,"Temperature, Max","Day 1, 2 hours",37.2 °C
same,"Temperature, Mean","Day 1, 2 hours",36.62 °C
same,"Temperature, Median","Day 1, 2 hours",36.60 °C
same,"Temperature, Min","Day 1, 2 hours",36.4 °C
same,"Temperature, Max","Day 1, 4 hours",37.1 °C
same,"Temperature, Mean","Day 1, 4 hours",36.57 °C
same,"Temperature, Median","Day 1, 4 hours",36.60 °C
same,"Temperature, Min","Day 1, 4 hours",36.3 °C
same,"Temperature, Max","Day 1, 6 hours",37.2 °C
same,"Temperature, Mean","Day 1, 6 hours",36.63 °C
same,"Temperature, Median","Day 1, 6 hours",36.60 °C
same,"Temperature, Min","Day 1, 6 hours",36.3 °C
same,"Temperature, Max",Day 2 - Discharge,37.1 °C
same,"Temperature, Mean",Day 2 - Discharge,36.59 °C
same,"Temperature, Median",Day 2 - Discharge,36.60 °C
same,"Temperature, Min",Day 2 - Discharge,35.9 °C
same,"Temperature, Max",Day 8,36.8 °C
same,"Temperature, Mean",Day 8,36.50 °C
same,"Temperature, Median",Day 8,36.50 °C
same,"Temperature, Min",Day 8,36.1 °C
same,"Temperature, Max",Day 15,37.1 °C
same,"Temperature, Mean",Day 15,36.60 °C
same,"Temperature, Median",Day 15,36.60 °C
same,"Temperature, Min",Day 15,36.2 °C
same,"Temperature, Change from Baseline, Max","to Day 1, 15 minutes",0.4 °C
same,"Temperature, Change from Baseline, Mean","to Day 1, 15 minutes",0.05 °C
same,"Temperature, Change from Baseline, Median","to Day 1, 15 minutes",0.10 °C
same,"Temperature, Change from Baseline, Min","to Day 1, 15 minutes",−0.3 °C
same,"Temperature, Change from Baseline, Max","to Day 1, 40 minutes",0.5 °C
same,"Temperature, Change from Baseline, Mean","to Day 1, 40 minutes",0.05 °C
same,"Temperature, Change from Baseline, Median","to Day 1, 40 minutes",0.00 °C
same,"Temperature, Change from Baseline, Min","to Day 1, 40 minutes",−0.2 °C
same,"Temperature, Change from Baseline, Max","to Day 1, 60 minutes",0.5 °C
same,"Temperature, Change from Baseline, Mean","to Day 1, 60 minutes",0.05 °C
same,"Temperature, Change from Baseline, Median","to Day 1, 60 minutes",0.00 °C
same,"Temperature, Change from Baseline, Min","to Day 1, 60 minutes",−0.3 °C
same,"Temperature, Change from Baseline, Max","to Day 1, 2 hours",0.7 °C
same,"Temperature, Change from Baseline, Mean","to Day 1, 2 hours",0.08 °C
same,"Temperature, Change from Baseline, Median","to Day 1, 2 hours",0.10 °C
same,"Temperature, Change from Baseline, Min","to Day 1, 2 hours",−0.2 °C
same,"Temperature, Change from Baseline, Max","to Day 1, 4 hours",0.5 °C
same,"Temperature, Change from Baseline, Mean","to Day 1, 4 hours",0.03 °C
same,"Temperature, Change from Baseline, Median","to Day 1, 4 hours",0.00 °C
same,"Temperature, Change from Baseline, Min","to Day 1, 4 hours",−0.4 °C
same,"Temperature, Change from Baseline, Max","to Day 1, 6 hours",0.9 °C
same,"Temperature, Change from Baseline, Mean","to Day 1, 6 hours",0.09 °C
same,"Temperature, Change from Baseline, Median","to Day 1, 6 hours",0.10 °C
same,"Temperature, Change from Baseline, Min","to Day 1, 6 hours",−0.4 °C
same,"Temperature, Change from Baseline, Max",to Day 2 - Discharge,0.5 °C
same,"Temperature, Change from Baseline, Mean",to Day 2 - Discharge,0.05 °C
same,"Temperature, Change from Baseline, Median",to Day 2 - Discharge,0.00 °C
same,"Temperature, Change from Baseline, Min",to Day 2 - Discharge,−0.3 °C
same,"Temperature, Change from Baseline, Max",to Day 8,0.6 °C
same,"Temperature, Change from Baseline, Mean",to Day 8,−0.03 °C
same,"Temperature, Change from Baseline, Median",to Day 8,0.00 °C
same,"Temperature, Change from Baseline, Min",to Day 8,−0.7 °C
same,"Temperature, Change from Baseline, Max",to Day 15,0.9 °C
same,"Temperature, Change from Baseline, Mean",to Day 15,0.05 °C
same,"Temperature, Change from Baseline, Median",to Day 15,0.00 °C
same,"Temperature, Change from Baseline, Min",to Day 15,−0.4 °C
